Source: ChEMBL document CHEMBL5291721, “A preclinical secondary pharmacology resource illuminates target-adverse drug reaction associations of marketed drugs” (Nat Commun, 2023)

Legend:
[1] = target: T1, Alpha-2A adrenergic receptor (Homo sapiens, UniProt P08913); assay type: functional, cell-based
T1 sequence (P08913 whole entry): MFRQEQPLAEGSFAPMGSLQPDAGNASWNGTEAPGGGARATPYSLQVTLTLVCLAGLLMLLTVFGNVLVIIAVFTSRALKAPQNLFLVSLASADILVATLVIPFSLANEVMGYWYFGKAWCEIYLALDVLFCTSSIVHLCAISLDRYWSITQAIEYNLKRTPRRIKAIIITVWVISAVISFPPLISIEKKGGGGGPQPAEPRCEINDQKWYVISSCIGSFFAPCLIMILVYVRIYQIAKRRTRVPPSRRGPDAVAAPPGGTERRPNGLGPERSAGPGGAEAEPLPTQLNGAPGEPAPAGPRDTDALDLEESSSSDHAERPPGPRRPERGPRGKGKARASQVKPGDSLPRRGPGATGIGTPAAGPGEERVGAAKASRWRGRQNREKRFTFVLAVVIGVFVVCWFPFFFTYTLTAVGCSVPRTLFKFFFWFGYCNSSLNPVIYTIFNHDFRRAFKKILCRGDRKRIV

[2] = target: T2, B2 bradykinin receptor (Homo sapiens, UniProt P30411)
T2 sequence (P30411 whole entry): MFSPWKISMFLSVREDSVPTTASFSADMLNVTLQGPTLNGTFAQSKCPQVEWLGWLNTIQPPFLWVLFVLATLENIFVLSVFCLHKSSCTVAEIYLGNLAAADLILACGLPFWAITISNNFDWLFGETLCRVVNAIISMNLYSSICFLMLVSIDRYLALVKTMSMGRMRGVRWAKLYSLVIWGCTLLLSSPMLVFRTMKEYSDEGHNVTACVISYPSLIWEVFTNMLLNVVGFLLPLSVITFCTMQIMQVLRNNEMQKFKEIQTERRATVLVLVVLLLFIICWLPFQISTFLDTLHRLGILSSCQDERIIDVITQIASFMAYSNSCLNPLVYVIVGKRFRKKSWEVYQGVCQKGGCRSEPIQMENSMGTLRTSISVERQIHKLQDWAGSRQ

[3] = target: T3, Muscarinic acetylcholine receptor M2 (Homo sapiens, UniProt P08172); assay type: functional, cell-based
T3 sequence (P08172 whole entry): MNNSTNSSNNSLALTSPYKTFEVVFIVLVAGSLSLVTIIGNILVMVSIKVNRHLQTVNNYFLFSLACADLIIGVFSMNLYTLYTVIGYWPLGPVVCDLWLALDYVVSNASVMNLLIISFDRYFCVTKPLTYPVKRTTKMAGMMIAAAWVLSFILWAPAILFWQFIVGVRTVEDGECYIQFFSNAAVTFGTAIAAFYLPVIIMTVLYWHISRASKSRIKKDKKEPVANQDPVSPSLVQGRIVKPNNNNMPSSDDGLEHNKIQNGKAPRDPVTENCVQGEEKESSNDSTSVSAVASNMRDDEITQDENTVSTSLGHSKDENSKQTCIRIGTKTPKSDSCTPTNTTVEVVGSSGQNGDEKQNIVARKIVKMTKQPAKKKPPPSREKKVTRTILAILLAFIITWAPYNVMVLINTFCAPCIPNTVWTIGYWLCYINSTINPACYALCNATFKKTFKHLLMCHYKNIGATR

[4] = target: 5-hydroxytryptamine receptor 2A (Homo sapiens, UniProt P28223); assay type: functional, cell-based
[5] = target: 5-hydroxytryptamine receptor 2B (Homo sapiens, UniProt P41595); assay type: functional, cell-based
[6] = target: T4, 5-hydroxytryptamine receptor 2C (Homo sapiens, UniProt P28335)
T4 sequence (P28335 whole entry): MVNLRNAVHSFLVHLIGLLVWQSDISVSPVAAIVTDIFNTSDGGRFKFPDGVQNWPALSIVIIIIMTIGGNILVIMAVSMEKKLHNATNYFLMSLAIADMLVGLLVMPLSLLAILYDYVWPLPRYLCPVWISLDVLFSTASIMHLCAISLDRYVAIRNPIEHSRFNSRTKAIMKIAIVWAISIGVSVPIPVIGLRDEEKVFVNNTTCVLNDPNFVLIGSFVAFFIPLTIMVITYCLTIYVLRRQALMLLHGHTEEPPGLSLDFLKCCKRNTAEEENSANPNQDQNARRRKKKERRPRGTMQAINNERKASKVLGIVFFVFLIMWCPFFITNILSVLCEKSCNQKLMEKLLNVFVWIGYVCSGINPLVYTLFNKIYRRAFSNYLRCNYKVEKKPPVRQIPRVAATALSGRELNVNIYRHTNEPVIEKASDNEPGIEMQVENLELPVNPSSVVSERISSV

[7] = target: Melanocortin receptor 3 (Homo sapiens, UniProt P41968)
[8] = target: Kappa-type opioid receptor (Homo sapiens, UniProt P41145)
[9] = target: 3',5'-cyclic-AMP phosphodiesterase 4D (Homo sapiens, UniProt Q08499); assay type: functional
[10] = target: T5, Prostaglandin G/H synthase 1 (Rattus norvegicus, UniProt Q63921); assay type: functional
T5 sequence (Q63921 whole entry): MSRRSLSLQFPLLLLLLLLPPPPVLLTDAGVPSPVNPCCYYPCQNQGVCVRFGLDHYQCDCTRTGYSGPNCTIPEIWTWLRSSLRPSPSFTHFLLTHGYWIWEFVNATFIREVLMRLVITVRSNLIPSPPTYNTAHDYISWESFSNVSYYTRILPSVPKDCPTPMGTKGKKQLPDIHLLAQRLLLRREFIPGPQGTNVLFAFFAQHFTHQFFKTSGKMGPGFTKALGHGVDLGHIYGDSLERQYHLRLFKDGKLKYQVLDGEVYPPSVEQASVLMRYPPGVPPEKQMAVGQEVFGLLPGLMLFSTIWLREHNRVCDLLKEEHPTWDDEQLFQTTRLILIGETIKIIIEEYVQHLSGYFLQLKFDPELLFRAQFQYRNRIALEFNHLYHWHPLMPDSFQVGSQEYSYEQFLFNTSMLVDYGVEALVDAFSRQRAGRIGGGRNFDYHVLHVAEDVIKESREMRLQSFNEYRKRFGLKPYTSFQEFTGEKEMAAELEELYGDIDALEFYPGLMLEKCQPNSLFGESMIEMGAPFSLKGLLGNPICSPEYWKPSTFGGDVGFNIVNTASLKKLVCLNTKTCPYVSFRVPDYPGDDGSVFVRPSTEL
Note: assay procedure not described here.

Sequence of 5-hydroxytryptamine receptor 2B (P41595 whole entry): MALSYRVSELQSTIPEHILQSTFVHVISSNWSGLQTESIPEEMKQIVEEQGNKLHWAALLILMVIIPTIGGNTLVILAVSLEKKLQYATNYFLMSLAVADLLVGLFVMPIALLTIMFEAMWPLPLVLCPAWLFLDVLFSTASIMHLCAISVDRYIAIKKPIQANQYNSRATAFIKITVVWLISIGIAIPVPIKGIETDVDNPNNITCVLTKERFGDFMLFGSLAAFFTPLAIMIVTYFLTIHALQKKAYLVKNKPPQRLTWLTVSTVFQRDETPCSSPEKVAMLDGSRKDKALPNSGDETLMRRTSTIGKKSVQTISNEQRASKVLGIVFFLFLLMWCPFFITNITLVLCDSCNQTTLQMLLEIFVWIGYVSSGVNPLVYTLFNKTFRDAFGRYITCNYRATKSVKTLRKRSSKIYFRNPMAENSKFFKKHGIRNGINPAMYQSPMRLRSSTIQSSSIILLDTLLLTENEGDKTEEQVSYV
Sequence of Kappa-type opioid receptor (P41145 whole entry): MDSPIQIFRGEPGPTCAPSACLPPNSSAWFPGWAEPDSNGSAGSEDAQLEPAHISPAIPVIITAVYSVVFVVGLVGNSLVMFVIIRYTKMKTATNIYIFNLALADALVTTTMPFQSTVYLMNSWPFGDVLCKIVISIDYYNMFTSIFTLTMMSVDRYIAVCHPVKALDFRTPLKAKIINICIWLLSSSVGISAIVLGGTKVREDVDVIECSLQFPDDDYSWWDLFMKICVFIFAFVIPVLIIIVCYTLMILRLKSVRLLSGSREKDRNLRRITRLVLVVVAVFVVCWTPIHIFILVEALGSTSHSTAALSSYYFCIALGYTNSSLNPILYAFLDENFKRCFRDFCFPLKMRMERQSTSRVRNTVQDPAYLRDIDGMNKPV
Sequence of Melanocortin receptor 3 (P41968 whole entry): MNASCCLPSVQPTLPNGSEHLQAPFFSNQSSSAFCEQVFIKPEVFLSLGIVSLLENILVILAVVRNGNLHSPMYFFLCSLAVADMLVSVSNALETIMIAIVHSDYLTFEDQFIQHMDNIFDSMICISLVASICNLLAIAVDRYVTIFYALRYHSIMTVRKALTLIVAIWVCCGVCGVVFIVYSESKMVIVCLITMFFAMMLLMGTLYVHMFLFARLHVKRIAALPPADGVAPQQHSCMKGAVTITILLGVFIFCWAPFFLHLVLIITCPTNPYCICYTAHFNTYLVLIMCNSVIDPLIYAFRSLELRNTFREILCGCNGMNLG
Sequence of 3',5'-cyclic-AMP phosphodiesterase 4D (Q08499 whole entry): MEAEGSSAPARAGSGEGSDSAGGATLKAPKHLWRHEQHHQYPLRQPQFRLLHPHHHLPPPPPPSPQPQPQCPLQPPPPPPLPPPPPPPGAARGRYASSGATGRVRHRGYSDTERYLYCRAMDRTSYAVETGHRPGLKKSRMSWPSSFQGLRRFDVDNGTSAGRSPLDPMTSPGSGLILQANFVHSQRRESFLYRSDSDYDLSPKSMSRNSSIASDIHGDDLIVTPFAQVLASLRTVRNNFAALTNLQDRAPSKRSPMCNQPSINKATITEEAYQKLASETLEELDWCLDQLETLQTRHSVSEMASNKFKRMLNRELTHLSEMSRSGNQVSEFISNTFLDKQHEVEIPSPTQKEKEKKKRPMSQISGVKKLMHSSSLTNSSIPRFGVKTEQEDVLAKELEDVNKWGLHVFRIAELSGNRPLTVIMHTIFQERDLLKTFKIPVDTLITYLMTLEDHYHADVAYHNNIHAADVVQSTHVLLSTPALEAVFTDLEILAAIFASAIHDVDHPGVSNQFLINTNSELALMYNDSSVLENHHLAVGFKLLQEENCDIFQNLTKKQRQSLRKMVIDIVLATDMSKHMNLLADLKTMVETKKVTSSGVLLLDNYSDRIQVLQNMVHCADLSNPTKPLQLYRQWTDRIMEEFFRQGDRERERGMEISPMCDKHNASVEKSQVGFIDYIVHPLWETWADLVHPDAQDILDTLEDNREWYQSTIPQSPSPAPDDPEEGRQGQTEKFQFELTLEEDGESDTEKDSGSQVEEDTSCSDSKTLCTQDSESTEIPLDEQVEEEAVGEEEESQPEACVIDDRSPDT
Sequence of 5-hydroxytryptamine receptor 2A (P28223 whole entry): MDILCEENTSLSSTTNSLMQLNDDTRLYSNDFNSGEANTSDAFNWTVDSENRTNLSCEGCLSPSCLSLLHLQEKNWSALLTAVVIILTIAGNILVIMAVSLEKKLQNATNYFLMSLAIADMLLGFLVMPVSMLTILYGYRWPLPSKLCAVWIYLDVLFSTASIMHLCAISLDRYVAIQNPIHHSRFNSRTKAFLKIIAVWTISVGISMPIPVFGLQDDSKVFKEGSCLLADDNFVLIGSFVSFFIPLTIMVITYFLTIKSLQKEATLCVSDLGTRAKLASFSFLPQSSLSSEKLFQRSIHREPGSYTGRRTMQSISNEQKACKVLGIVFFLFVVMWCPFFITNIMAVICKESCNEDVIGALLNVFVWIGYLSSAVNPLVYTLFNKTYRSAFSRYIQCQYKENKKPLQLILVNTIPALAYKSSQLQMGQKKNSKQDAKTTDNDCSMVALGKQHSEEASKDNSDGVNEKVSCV

Structure (SMILES)	AC50 [1] [µM]	AC50 [2] [µM]	AC50 [3] [µM]	AC50 [4] [µM]	AC50 [5] [µM]	AC50 [6] [µM]	AC50 [7] [µM]	AC50 [8] [µM]	AC50 [9] [µM]	AC50 [10] [µM]
CCC(=O)[C@@]1(C)[C@H](C)C[C@H]2[C@@H]3CCC4=CC(=O)C=C[C@]4(C)[C@H]3[C@@H](O)C[C@@]21C [RIMEXOLONE]	> 10	> 10	> 10	> 10	> 10	> 30	> 10	> 10	> 30	> 10
O=C(C[S+]([O-])Cc1ccco1)NC/C=C\COc1cc(CN2CCCCC2)ccn1 (stereo not given) [LAFUTIDINE]	> 10	> 10	> 10	> 30	> 10	> 30	> 10	> 10	> 30	> 10
CO/N=C(\C(=O)N[C@@H]1C(=O)N2C(C(=O)O)=C(CSc3nc(C)c(CC(=O)O)s3)CS[C@H]12)c1csc(N)n1 [CEFODIZIME]	> 30	> 30	> 30	> 30	> 30	> 30	> 30	> 30	> 30	27
Cc1ccc(-c2ncc(Cl)cc2-c2ccc(S(C)(=O)=O)cc2)cn1 [ETORICOXIB]	> 10	> 30	> 10	> 30	> 10	> 10	> 10	> 10	9	> 30
CCN1C(=O)NC(c2ccccc2)C1=O (stereo not given) [ETHOTOIN]	> 30	> 30	> 30	> 30	> 30	> 30	> 30	> 30	> 30	22
OCC(CO)N[C@H]1C[C@](O)(CO)[C@@H](O)[C@H](O)[C@H]1O [VOGLIBOSE]	> 30	> 30	> 30	> 30	> 30	> 30	> 30	> 30	> 30	> 30
CCCO[C@H]1[C@@H]([C@@H](COCc2ccc(Cl)cc2)OCc2ccc(Cl)cc2)OC(OCC)[C@@H]1O (stereo not given in full) [CLOBENOSIDE]	> 30	> 30	> 30	> 30	> 30	> 30	> 30	27	> 30	> 10
COC(=O)c1ccc2c(c1)NC(=O)/C2=C(\Nc1ccc(N(C)C(=O)CN2CCN(C)CC2)cc1)c1ccccc1 [NINTEDANIB]	> 30	> 10	> 30	> 30	> 30	25	> 30	> 30	> 30	> 30
Nc1nc(Cl)nc2c1ncn2[C@@H]1O[C@H](CO)[C@@H](O)[C@@H]1F [CLOFARABINE]	> 10	> 30	> 10	> 30	> 30	> 30	> 30	> 10	0.17	> 30
CN(C)CCOCC(=O)NC12CC3CC(CC(C3)C1)C2 [TROMANTADINE]	> 30	> 30	> 30	> 30	> 30	> 30	> 30	11	> 30	> 30
CC(C)(N)Cc1ccccc1 [PHENTERMINE]	> 10	> 30	> 10	> 30	> 10	> 30	> 30	> 10	> 30	> 30
OCC(O)COc1ccc(Cl)cc1 (stereo not given)	> 10	> 10	> 10	> 10	> 10	> 30	> 10	> 10	> 30	> 10
CCN(CC)CCCN(c1ccccc1)C1Cc2ccccc2C1 [APRINDINE]	> 30	> 30	> 30	> 30	> 30	8.5	> 30	0.795	> 30	> 30
CC1=C(C(=O)O)N2C(=O)[C@@H](NC(=O)[C@H](N)C3=CCC=CC3)[C@H]2SC1 [CEPHRADINE]	> 30	> 10	> 30	> 30	> 30	> 30	> 30	> 30	> 30	> 30
CCN(CC)Cc1nccn1-c1ccc([N+](=O)[O-])cc1C(=O)c1ccccc1Cl [NIZOFENONE]	> 30	> 30	> 30	> 30	> 30	> 30	> 30	6.3	> 30	> 30
CCC1(CC)C(=O)NC(=O)N(C)C1=O [METHARBITAL]	> 10	> 10	> 10	> 10	> 10	> 30	> 10	> 10	> 30	> 10
COc1ccc(-n2nc(C(N)=O)c3c2C(=O)N(c2ccc(N4CCCCC4=O)cc2)CC3)cc1 [APIXABAN]	> 30	> 30	> 30	> 30	> 30	> 30	> 30	> 30	> 30	> 30
